Data published in patent publication US4096252A, “4-Trifluoromethylbenzoic acid derivatives as thromboembolic agents” (priority 1976, dated 1978).
Values joined by “and” are separate entries in the source; they are usually repeats but may differ in a detail not shown here. Equal entries are not always repeated. Where two headings read alike, the source gives them in different places.

Columns and labels:
rat platelet aggregation = experiment: In vitro inhibition of rat platelet aggregation (Born and Cross method); type: cell-based; settings: Rattus norvegicus, Platelet, rat plasma; for inhibition at 8300 µM: plasma concentration 8.30×10^-3 molar; for inhibition at 4150 µM: plasma concentration 4.15×10^-3 molar
Procedure: Platelet aggregation was measured according to the method of Born and Cross (8) by using rat and human plasma.

[1] = tested on: human platelet aggregation; experiment: In vitro inhibition of human platelet aggregation (Born and Cross method); type: cell-based
Procedure: Platelet aggregation was measured according to the method of Born and Cross (8) by using rat and human plasma. The results are summarized below in Tables I and II.
Key : PC = Plasma Concentration: PAI = Platelet Aggregation
*The percent of inhibition was calculated using the method described by
McKenzie (Proc. Soc. Exp. Biol. Med. 137: 662, 1971).

gastric mucosa = settings: rat, in vivo
Procedure: For this reason this compound has not been included in further in vivo experimentation. However, the other two compounds were well tolerated and satisfactory low acute toxicity values were found (approximately 500 mg/kg for both substances).

[2] = tested on: human platelet aggregation; experiment: Human platelet aggregation induced by ADP and epinephrine after oral administration to humans; type: in vivo; settings: Tables III and IV
Procedure: (§1) In the in vivo tests on humans, the two selected compounds were administered per os during six consecutive days at equimolar doses: 200 mg three times a day of 2-acetoxy-4-trifluoromethylbenzoic acid and 248 mg three times a day of 2-phosphonoxy-4-trifluoromethylbenzoic acid.
(§2) Blood was collected on the first, fourth and seventh day of the test and the platelet aggregation induced by ADP, epinephrine and collagen was determined according to the above-mentioned Born method.
(§3) EFFECT OF 2-ACETOXY-4-TRIFLUOROMETHYLBENZOIC ACID
(§4) AND 2-PHOSPHONOXY-4-TRIFLUOROMETHYLBENZOIC
ACID ON PLATELET AGGREGATION INDUCED BY ADP AND
EPINEPHRINE AFTER ORAL ADMINISTRATION TO HUMANS*
*The figures express the concentration (μM) that produces irreversible

[3] = tested on: human platelet aggregation; experiment: Human platelet aggregation induced by collagen after oral administration to humans; type: in vivo; settings: collagen 33.3 μg/m, one value per human; for delay (collagen-induced aggregation curve) / x (collagen-induced aggregation curve): increase vs control = inhibition
Procedure: The significance of the parameters employed in Table IV (x, y and delay) is indicated; and
as §1, §2, §3, §4
ACID ON PLATELET AGGREGATION INDUCED BY
COLLAGEN AFTER ORAL ADMINISTRATION TO HUMANS*.
*An increase of delay time and x and a decrease of y with respect to
control indicate an inhibitory effect on platelet aggregation (see FIG.

[4] = tested on: blood coagulation factors and fibrinolysis; type: in vivo, human; settings: oral; for Hematocrit / Platelet count / Euglobin lysis time: Von Kaulas's test / Activated kaolin test / Activated partial thromboplastin test: APTI / Howell's test / Plasma prothrombine test: Quick test / Serum prothrombin time / Bleeding time, Duke test / Clotting time / Thromboelastogram K / Thromboelastogram r: mean ± s.e.m.; for Euglobin lysis time: Von Kaulas's test: decrease vs control = drug effect; for Activated kaolin test / Activated partial thromboplastin test: APTI / Howell's test / Plasma prothrombine test: Quick test / Serum prothrombin time: decrease vs control = inhibitory effect; for Bleeding time, Duke test / Clotting time / Thromboelastogram K / Thromboelastogram r: increase vs control = inhibitory effect
Procedure: The values r and k (in parameter 15 of Table V) correspond to blood (b). Their significance appears from the Figure.
as §1, §2
The potential anticoagulant and fibrinolytic activity of the claimed compounds has therefore likewise been investigated. For this purpose, with the same blood samples used for the determination of in vivo antiaggregating action on humans, the following parameters were examined: clotting time, bleeding time (Duke test), tourniquet test, Parrot's test, plasma prothrombine test (Quick test), activated partial thromboplastin test (APTT), activated Kaolin test, Howell's test, serum prothrombin time, euglobulin lysis time, Von Kaula's test, degradation products of fibrinogen (DPF), platelet count, clot retraction, hematocrit and thromboelastogram.
EFFECT OF 2-ACETOXY-4-TRIFLUOROMETHYLBENZOIC ACID AND 2-PHOSPHONOXY-4-TRIF
ZOIC ACID ON BLOOD COAGULATION FACTORS AND FIBRINOLYSIS*.
treated with 2-acetoxy-4-trifluoromethylbenzoic acid and on 6 humans
treated with 2-phos phonoxy-4-trifluoromethylbenzoic acid. An increase of
the mean values (±s.e.m.) of parameters 1 and 2 or a decrease of
parameters 5,6,7,8,9,10 and 11 with respect to control, mean an inhibitor
effec of drugs on the blood coagulation and fibrinolysis.
**An increase of r and k values with respect to control, indicates an
inhibitory effect of the drugs on blood coagulation and also on platelet
aggregation. These figures are indicated in FIG. 2 which corresponds to a
normal thromboelastogram.

[5] = Collagen 33.3 μg/ml, read-out: Platelet Aggregation Inhibition (PAI)
[6] = read-out: Platelet Aggregation Inhibition (PAI), ADP 4.1×10^-6 M
[7] = read-out: Platelet Aggregation Inhibition (PAI), Collagen 33.3 μg/ml

## O=C(O)c1ccc(C(F)(F)F)cc1O [2-hydroxy-4-trifluoromethylbenzoic acid]
Rat platelet aggregation; ADP 4.1×10^-6 M, plasma concentration 6.25×10^-3 molar, read-out: Platelet Aggregation Inhibition (PAI)
  inhibition at 6250 µM: 60.2%
Rat platelet aggregation; ADP 4.1×10^-6 M, read-out: Platelet Aggregation Inhibition (PAI)
  inhibition at 8300 µM: 89.2%
Rat platelet aggregation; [5]
  inhibition at 4150 µM: 27.2%
  inhibition at 8300 µM: 48.3%
[1]; ADP 1.6×10^-6 M, plasma concentration 6.25×10^-3 molar, read-out: Platelet Aggregation Inhibition (PAI)
  inhibition at 6250 µM: 70%
[1]; ADP 1.6×10^-6 M, plasma concentration 8.30×10^-3 molar, read-out: Platelet Aggregation Inhibition (PAI)
  inhibition at 8300 µM: 100%
[1]; Collagen 33.3 mcg/ml, plasma concentration 8.30×10^-3 molar, read-out: Platelet Aggregation Inhibition (PAI)
  inhibition at 8300 µM: 58%
[1]; Collagen 33.3 mcg/ml, plasma concentration 17.0×10^-3 molar, read-out: Platelet Aggregation Inhibition (PAI)
  inhibition at 17000 µM: 75%
[1]; Epinephrine 1.4×10^-6 M, plasma concentration 3.30×10^-3 molar, read-out: Platelet Aggregation Inhibition (PAI)
  inhibition at 3300 µM: 32%
[1]; Epinephrine 1.4×10^-6 M, plasma concentration 8.10×10^-3 molar, read-out: Platelet Aggregation Inhibition (PAI)
  inhibition at 8100 µM: 91%
Gastric mucosa
  gastro-intestinal disturbances (in words): high incidence of serious gastro-intestinal disturbances, including bleeding of the gastric mucosa and peptic ulcers

## O=C(O)c1ccc(C(F)(F)F)cc1OP(=O)(O)O [2-phosphonoxy-4-trifluoromethylbenzoic acid]
Rat platelet aggregation; read-out: Platelet Aggregation Inhibition (PAI), ADP 4.1×10^-6 M, plasma concentration 0.83×10^-3 molar
  inhibition at 830 µM: 11.2%
Rat platelet aggregation; read-out: Platelet Aggregation Inhibition (PAI), ADP 4.1×10^-6 M, plasma concentration 2.08×10^-3 molar
  inhibition at 2080 µM: 23.1%
Rat platelet aggregation; [6]
  inhibition at 4150 µM: 57.5%
  inhibition at 8300 µM: 69.8%
Rat platelet aggregation; [7]
  inhibition at 4150 µM: 45.5%
  inhibition at 8300 µM: 94.5%
[1]; read-out: Platelet Aggregation Inhibition (PAI), ADP 1.6×10^-6 M, plasma concentration 6.25×10^-3 molar
  inhibition at 6250 µM: 56.6%
[1]; read-out: Platelet Aggregation Inhibition (PAI), ADP 1.6×10^-6 M, plasma concentration 8.30×10^-3 molar
  inhibition at 8300 µM: 60.8%
[1]; read-out: Platelet Aggregation Inhibition (PAI), Collagen 33.3 mcg/ml, plasma concentration 4.10×10^-3 molar
  inhibition at 4100 µM: 0%
[1]; read-out: Platelet Aggregation Inhibition (PAI), Collagen 33.3 mcg/ml, plasma concentration 8.30×10^-3 molar
  inhibition at 8300 µM: 12.6%
[1]; read-out: Platelet Aggregation Inhibition (PAI), Epinephrine 1.4×10^-6 M, plasma concentration 17.0×10^-3 molar
  inhibition at 17000 µM: 59%
[2]
  in vivo action on human platelet aggregation (in words): only a slight in vivo action on human platelet aggregation
[3]; 4th day, decrease vs control = inhibition
  y (collagen-induced aggregation curve): 49 mm and 42 mm and 36 mm and 37 mm and 41 mm
[3]; 4th day
  delay (collagen-induced aggregation curve): 36 xc and 24 xc and 48 xc
  x (collagen-induced aggregation curve): 14 mm and 16 mm and 17 mm and 22 mm and 18 mm
[3]; 7th day
  delay (collagen-induced aggregation curve): 48 xc and 24 xc and 36 xc
  x (collagen-induced aggregation curve): 13 mm and 14 mm and 15 mm and 23 mm and 12 mm
[4]; 4th day
  Hematocrit: 42.0±1.0
  Platelet count: 253.3±10.5 per mm^3 ×10^3
  Euglobin lysis time: Von Kaulas's test: 145.1 ± 9.3 min
  Activated kaolin test: 0.768±0.05
  Activated partial thromboplastin test: APTI: 0.823±0.04
  Howell's test: 0.873
  Plasma prothrombine test: Quick test: 0.966±0.02
  Serum prothrombin time: 34.8 ± 2.6 s
  Bleeding time, Duke test: 155.0 ± 19.6 s
  Clotting time: 527.5 ± 30.8 s
  Thromboelastogram K: 25.3±2.7 cm
  Thromboelastogram r: 17.8±2.0 cm
[4]; 7th day
  Hematocrit: 45.0±1.4
  Platelet count: 223.3±12.8 per mm^3 ×10^3
  Euglobin lysis time: Von Kaulas's test: 136.6 ± 9.0 min
  Activated kaolin test: 0.960±0.04
  Activated partial thromboplastin test: APTI: 0.960±0.01
  Howell's test: 0.793±0.07
  Plasma prothrombine test: Quick test: 0.986±0.02
  Serum prothrombin time: 33.0 ± 1.5 s
  Bleeding time, Duke test: 112.5 ± 10.8 s
  Clotting time: 520.0 ± 28.6 s
  Thromboelastogram K: 19.9±1.9 cm
  Thromboelastogram r: 15.0±1.3 cm
[4]; humans
  anticoagulant action (in words): exert an anticoagulant action
  blood fibrinolytic activity (in words): increase of the blood fibrinolytic activity
[4]; days not separated
  Clot retraction: NEGATIVE
  Degradation products of fibrinogen: DPF: NEGATIVE
  Parrot's test: POSITIVE IN FOUR HUMANS
  Tourniquet test: NEGATIVE
